According to the NIST ThermoML archive (doi:10.1016/j.tca.2008.12.029):
Numbers after ± are expanded uncertainties.

Assay: molar heat capacity at constant pressure
Settings: 101.33 kPa, Crystal, Vacuum adiabatic calorimetry

With `O=C([O-])c1ccccc1.[Na+]` [sodium benzoate] the “molar heat capacity at constant pressure” value (78.86 K) was 74.66 ± 0.47 J/K/mol, the “molar heat capacity at constant pressure” value (80.43 K) was 75.06 ± 0.47 J/K/mol and the “molar heat capacity at constant pressure” value (82.62 K) was 76.58 ± 0.48 J/K/mol. The “molar heat capacity at constant pressure” value (84.79 K) was 77.94 ± 0.49 J/K/mol, the “molar heat capacity at constant pressure” value (87.06 K) was 79 ± 0.49 J/K/mol and the “molar heat capacity at constant pressure” value (89.08 K) was 80.34 ± 0.5 J/K/mol. For the same molecule, the “molar heat capacity at constant pressure” value (91.16 K) was 81.6 ± 0.53 J/K/mol, the “molar heat capacity at constant pressure” value (93.24 K) was 82.94 ± 0.54 J/K/mol and the “molar heat capacity at constant pressure” value (95.32 K) was 83.73 ± 0.54 J/K/mol. For the same molecule, the “molar heat capacity at constant pressure” value (97.26 K) was 84.83 ± 0.55 J/K/mol, the “molar heat capacity at constant pressure” value (99.2 K) was 86.09 ± 0.56 J/K/mol and the “molar heat capacity at constant pressure” value (101.14 K) was 87.27 ± 0.56 J/K/mol. The “molar heat capacity at constant pressure” value (103.01 K) was 88.2 ± 0.57 J/K/mol, the “molar heat capacity at constant pressure” value (104.89 K) was 89.11 ± 0.57 J/K/mol and the “molar heat capacity at constant pressure” value (106.3 K) was 89.81 ± 0.58 J/K/mol. For the same molecule, the “molar heat capacity at constant pressure” value (107.72 K) was 90.52 ± 0.58 J/K/mol, the “molar heat capacity at constant pressure” value (109.44 K) was 91.63 ± 0.59 J/K/mol and the “molar heat capacity at constant pressure” value (111.32 K) was 92.54 ± 0.59 J/K/mol. For the same molecule, the “molar heat capacity at constant pressure” value (113.05 K) was 93.55 ± 0.6 J/K/mol, the “molar heat capacity at constant pressure” value (114.93 K) was 94.67 ± 0.6 J/K/mol and the “molar heat capacity at constant pressure” value (116.5 K) was 95.37 ± 0.61 J/K/mol. For the same molecule, the “molar heat capacity at constant pressure” value (118.38 K) was 95.98 ± 0.61 J/K/mol, the “molar heat capacity at constant pressure” value (120.05 K) was 97.43 ± 0.62 J/K/mol and the “molar heat capacity at constant pressure” value (122.61 K) was 98.9 ± 0.63 J/K/mol. The “molar heat capacity at constant pressure” value (126.31 K) was 100.57 ± 0.64 J/K/mol, the “molar heat capacity at constant pressure” value (129.87 K) was 102.54 ± 0.65 J/K/mol and the “molar heat capacity at constant pressure” value (133.42 K) was 104.11 ± 0.66 J/K/mol. The “molar heat capacity at constant pressure” value (137.05 K) was 105.58 ± 0.67 J/K/mol, the “molar heat capacity at constant pressure” value (140.25 K) was 107.64 ± 0.68 J/K/mol and the “molar heat capacity at constant pressure” value (143.52 K) was 109.31 ± 0.69 J/K/mol. The “molar heat capacity at constant pressure” value (146.93 K) was 111.38 ± 0.7 J/K/mol, the “molar heat capacity at constant pressure” value (150.2 K) was 112.85 ± 0.71 J/K/mol and the “molar heat capacity at constant pressure” value (153.61 K) was 114.42 ± 0.72 J/K/mol. The “molar heat capacity at constant pressure” value (156.74 K) was 115.8 ± 0.73 J/K/mol, the “molar heat capacity at constant pressure” value (159.94 K) was 117.1 ± 0.74 J/K/mol and the “molar heat capacity at constant pressure” value (163.08 K) was 118.62 ± 0.75 J/K/mol. The “molar heat capacity at constant pressure” value (166.41 K) was 120.71 ± 0.76 J/K/mol, the “molar heat capacity at constant pressure” value (169.54 K) was 122.29 ± 0.77 J/K/mol and the “molar heat capacity at constant pressure” value (172.67 K) was 124.15 ± 0.78 J/K/mol. For the same molecule, the “molar heat capacity at constant pressure” value (175.8 K) was 125.53 ± 0.79 J/K/mol, the “molar heat capacity at constant pressure” value (178.78 K) was 127.2 ± 0.8 J/K/mol and the “molar heat capacity at constant pressure” value (182.05 K) was 128.48 ± 0.81 J/K/mol. For the same molecule, the “molar heat capacity at constant pressure” value (186.18 K) was 130.74 ± 0.82 J/K/mol, the “molar heat capacity at constant pressure” value (190.73 K) was 133.09 ± 0.83 J/K/mol and the “molar heat capacity at constant pressure” value (194.71 K) was 134.96 ± 0.84 J/K/mol. For the same molecule, the “molar heat capacity at constant pressure” value (198.69 K) was 136.73 ± 0.85 J/K/mol, the “molar heat capacity at constant pressure” value (202.67 K) was 138.89 ± 0.87 J/K/mol and the “molar heat capacity at constant pressure” value (206.65 K) was 140.95 ± 0.88 J/K/mol. The “molar heat capacity at constant pressure” value (210.78 K) was 143.02 ± 0.89 J/K/mol, the “molar heat capacity at constant pressure” value (214.62 K) was 144.69 ± 0.9 J/K/mol and the “molar heat capacity at constant pressure” value (218.6 K) was 147.24 ± 0.92 J/K/mol. For the same molecule, the “molar heat capacity at constant pressure” value (222.72 K) was 148.91 ± 0.93 J/K/mol, the “molar heat capacity at constant pressure” value (226.56 K) was 150.78 ± 0.94 J/K/mol and the “molar heat capacity at constant pressure” value (230.54 K) was 152.55 ± 0.95 J/K/mol. For the same molecule, the “molar heat capacity at constant pressure” value (234.67 K) was 154.3 ± 0.96 J/K/mol, the “molar heat capacity at constant pressure” value (238.65 K) was 156.48 ± 0.97 J/K/mol and the “molar heat capacity at constant pressure” value (242.63 K) was 158.35 ± 0.98 J/K/mol. For the same molecule, the “molar heat capacity at constant pressure” value (247.75 K) was 160.9 ± 1 J/K/mol, the “molar heat capacity at constant pressure” value (252.79 K) was 162.99 ± 1 J/K/mol and the “molar heat capacity at constant pressure” value (256.71 K) was 164.6 ± 1 J/K/mol. For the same molecule, the “molar heat capacity at constant pressure” value (260.69 K) was 166.7 ± 1 J/K/mol, the “molar heat capacity at constant pressure” value (264.71 K) was 168.34 ± 1 J/K/mol and the “molar heat capacity at constant pressure” value (268.8 K) was 170.63 ± 1.1 J/K/mol. For the same molecule, the “molar heat capacity at constant pressure” value (272.92 K) was 172.89 ± 1.1 J/K/mol, the “molar heat capacity at constant pressure” value (276.9 K) was 174.76 ± 1.1 J/K/mol and the “molar heat capacity at constant pressure” value (280.74 K) was 176.43 ± 1.1 J/K/mol. For the same molecule, the “molar heat capacity at constant pressure” value (284.72 K) was 178.39 ± 1.1 J/K/mol, the “molar heat capacity at constant pressure” value (288.7 K) was 179.87 ± 1.1 J/K/mol and the “molar heat capacity at constant pressure” value (292.69 K) was 181.54 ± 1.1 J/K/mol. For the same molecule, the “molar heat capacity at constant pressure” value (295.1 K) was 182.91 ± 1.1 J/K/mol, the “molar heat capacity at constant pressure” value (298.37 K) was 184.58 ± 1.1 J/K/mol and the “molar heat capacity at constant pressure” value (301.36 K) was 185.56 ± 1.1 J/K/mol. For the same molecule, the “molar heat capacity at constant pressure” value (304.35 K) was 186.94 ± 1.1 J/K/mol, the “molar heat capacity at constant pressure” value (307.33 K) was 188.32 ± 1.2 J/K/mol and the “molar heat capacity at constant pressure” value (310.32 K) was 189.49 ± 1.2 J/K/mol. For the same molecule, the “molar heat capacity at constant pressure” value (313.3 K) was 190.87 ± 1.2 J/K/mol, the “molar heat capacity at constant pressure” value (316.29 K) was 191.75 ± 1.2 J/K/mol and the “molar heat capacity at constant pressure” value (319.28 K) was 192.93 ± 1.2 J/K/mol. For the same molecule, the “molar heat capacity at constant pressure” value (322.12 K) was 194.21 ± 1.2 J/K/mol, the “molar heat capacity at constant pressure” value (325.11 K) was 195.49 ± 1.2 J/K/mol and the “molar heat capacity at constant pressure” value (327.81 K) was 196.77 ± 1.2 J/K/mol. For the same molecule, the “molar heat capacity at constant pressure” value (329.51 K) was 197.36 ± 1.2 J/K/mol, the “molar heat capacity at constant pressure” value (332.93 K) was 198.63 ± 1.2 J/K/mol and the “molar heat capacity at constant pressure” value (335.35 K) was 199.91 ± 1.2 J/K/mol. For the same molecule, the “molar heat capacity at constant pressure” value (338.05 K) was 200.79 ± 1.2 J/K/mol, the “molar heat capacity at constant pressure” value (340.89 K) was 202.17 ± 1.2 J/K/mol and the “molar heat capacity at constant pressure” value (343.88 K) was 202.96 ± 1.2 J/K/mol. The “molar heat capacity at constant pressure” value (346.72 K) was 204.33 ± 1.3 J/K/mol, the “molar heat capacity at constant pressure” value (349.42 K) was 205.02 ± 1.3 J/K/mol and the “molar heat capacity at constant pressure” value (352.27 K) was 206.2 ± 1.3 J/K/mol. For the same molecule, the “molar heat capacity at constant pressure” value (355.25 K) was 207.28 ± 1.3 J/K/mol, the “molar heat capacity at constant pressure” value (358.1 K) was 208.56 ± 1.3 J/K/mol and the “molar heat capacity at constant pressure” value (360.85 K) was 209.38 ± 1.3 J/K/mol. The “molar heat capacity at constant pressure” value (363.79 K) was 210.82 ± 1.3 J/K/mol, the “molar heat capacity at constant pressure” value (366.63 K) was 212.19 ± 1.3 J/K/mol and the “molar heat capacity at constant pressure” value (369.62 K) was 213.57 ± 1.3 J/K/mol. For the same molecule, the “molar heat capacity at constant pressure” value (372.46 K) was 214.53 ± 1.3 J/K/mol, the “molar heat capacity at constant pressure” value (375.3 K) was 215.93 ± 1.3 J/K/mol and the “molar heat capacity at constant pressure” value (378.15 K) was 217.2 ± 1.3 J/K/mol. The “molar heat capacity at constant pressure” value (380.99 K) was 218.09 ± 1.3 J/K/mol, the “molar heat capacity at constant pressure” value (383.98 K) was 219.66 ± 1.4 J/K/mol and the “molar heat capacity at constant pressure” value (386.68 K) was 220.45 ± 1.4 J/K/mol. For the same molecule, the “molar heat capacity at constant pressure” value (389.52 K) was 221.82 ± 1.4 J/K/mol, the “molar heat capacity at constant pressure” value (392.37 K) was 223.2 ± 1.4 J/K/mol and the “molar heat capacity at constant pressure” value (395.21 K) was 224.18 ± 1.4 J/K/mol. For the same molecule, the “molar heat capacity at constant pressure” value (397.91 K) was 225.75 ± 1.4 J/K/mol.
